Results on two sequences are retold here after patent publication US11578110B2, “Compounds for inducing tissue formation and uses thereof” (HISTIDE AG, priority 2015, dated 2023).

Experiment [1] deals with hMSCs. In words: STRO-1 stemness marker expression in hMSCs (immunostaining, ImageJ quantification). It counts as cell-based, Human. Particulars: SEQ ID NO: 1 to 49 tested in combination with a bioactive carrier (titanium, ceramics, PEEK, hydrogel, etc.). Summed up:
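hMSCs exposed to GFR-binding peptides in solution or grafted on surfaces; cells fixed in 4% paraformaldehyde, permeabilized, stained with Stro-1 antibody (1 h, 37° C) plus Alexa Fluor secondary and DAPI. Stro-1 positive contact number and area quantified by thresholded image analysis, at least 30 cells per condition.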

Experiment [2] relates to Human umbilical-vein endothelial cells. In words: Endothelialization: adherent junctions (CD31) of HUVECs on modified PET. The experiment is classed as cell-based. The note with it: 36 hours, covalently modified PET. On the procedure: An increase in the area of the adherent junctions (CD31) was observed after 36 hours of culture on the covalently modified PET (FIG. 13).

The test system is the same in experiment [3]. In words: Angiogenesis: tube-like structure formation of HUVECs on modified PET. The note with it: 18 hours, covalently modified PET. The experiment is classed as cell-based.

As to STPPTSSSRVRLRSVKVAKV [SEQ ID NO: 38], in experiment [1], the STRO-1 expression was 34%. In experiment [2], the “area of the adherent junctions (CD31)” value is “increase”.

In the case of KVGKASSVPTKLSNITMQIM [SEQ ID NO: 39], the STRO-1 expression in experiment [1] was 32%. For the same sequence, the “formation of tube-like structures” value in experiment [3] is listed as “observed”.
